Each structure is given as a SMILES string.

For five molecules, IC50 results are on record in ChEMBL document CHEMBL1126120, “Synthesis and biological evaluation of dihydroeptastatin, a novel inhibitor of 3-hydroxy-3-methylglutaryl coenzyme A reductase” (J Med Chem, 1992).

Assay [1] deals with T1, 3-hydroxy-3-methylglutaryl-coenzyme A reductase (Homo sapiens, UniProt P04035).
T1 sequence (P04035 whole entry): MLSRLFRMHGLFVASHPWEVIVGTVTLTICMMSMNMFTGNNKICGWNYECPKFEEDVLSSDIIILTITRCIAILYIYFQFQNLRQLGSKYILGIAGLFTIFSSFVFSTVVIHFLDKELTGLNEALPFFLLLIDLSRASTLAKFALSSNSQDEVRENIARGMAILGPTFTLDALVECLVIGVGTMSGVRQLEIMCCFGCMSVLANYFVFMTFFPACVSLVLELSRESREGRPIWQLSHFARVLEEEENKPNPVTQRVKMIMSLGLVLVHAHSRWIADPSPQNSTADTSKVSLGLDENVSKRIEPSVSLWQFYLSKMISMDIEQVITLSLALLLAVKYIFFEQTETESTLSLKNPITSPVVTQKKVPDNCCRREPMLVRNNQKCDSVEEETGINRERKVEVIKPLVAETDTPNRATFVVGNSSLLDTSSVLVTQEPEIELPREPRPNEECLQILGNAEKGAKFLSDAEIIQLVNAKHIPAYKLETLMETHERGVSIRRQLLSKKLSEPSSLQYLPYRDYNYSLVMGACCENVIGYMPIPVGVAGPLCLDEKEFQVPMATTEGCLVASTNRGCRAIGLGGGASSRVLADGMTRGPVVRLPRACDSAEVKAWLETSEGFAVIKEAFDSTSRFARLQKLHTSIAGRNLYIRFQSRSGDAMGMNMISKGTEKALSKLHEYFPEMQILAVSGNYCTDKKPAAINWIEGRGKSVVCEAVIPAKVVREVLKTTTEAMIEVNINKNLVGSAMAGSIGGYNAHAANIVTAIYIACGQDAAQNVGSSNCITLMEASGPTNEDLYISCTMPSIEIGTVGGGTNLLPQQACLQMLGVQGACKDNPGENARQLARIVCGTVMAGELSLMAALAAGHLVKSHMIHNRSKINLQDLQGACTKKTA
Nature of the assay: Concentration required to inhibit HMG-CoA reductase by 50% was determined in Hep G2 cell line. The class given is functional, cell-based, HepG2.

The next assay has as its system HES. Put plainly: Concentration required to inhibit HMG-CoA reductase by 50% was determined in HES 9 cell line. Format: functional, cell-based. Conditions: Homo sapiens.
The target of assay [2] is T2, 3-hydroxy-3-methylglutaryl-coenzyme A reductase (Rattus norvegicus, UniProt P51639).
T2 sequence (P51639 whole entry): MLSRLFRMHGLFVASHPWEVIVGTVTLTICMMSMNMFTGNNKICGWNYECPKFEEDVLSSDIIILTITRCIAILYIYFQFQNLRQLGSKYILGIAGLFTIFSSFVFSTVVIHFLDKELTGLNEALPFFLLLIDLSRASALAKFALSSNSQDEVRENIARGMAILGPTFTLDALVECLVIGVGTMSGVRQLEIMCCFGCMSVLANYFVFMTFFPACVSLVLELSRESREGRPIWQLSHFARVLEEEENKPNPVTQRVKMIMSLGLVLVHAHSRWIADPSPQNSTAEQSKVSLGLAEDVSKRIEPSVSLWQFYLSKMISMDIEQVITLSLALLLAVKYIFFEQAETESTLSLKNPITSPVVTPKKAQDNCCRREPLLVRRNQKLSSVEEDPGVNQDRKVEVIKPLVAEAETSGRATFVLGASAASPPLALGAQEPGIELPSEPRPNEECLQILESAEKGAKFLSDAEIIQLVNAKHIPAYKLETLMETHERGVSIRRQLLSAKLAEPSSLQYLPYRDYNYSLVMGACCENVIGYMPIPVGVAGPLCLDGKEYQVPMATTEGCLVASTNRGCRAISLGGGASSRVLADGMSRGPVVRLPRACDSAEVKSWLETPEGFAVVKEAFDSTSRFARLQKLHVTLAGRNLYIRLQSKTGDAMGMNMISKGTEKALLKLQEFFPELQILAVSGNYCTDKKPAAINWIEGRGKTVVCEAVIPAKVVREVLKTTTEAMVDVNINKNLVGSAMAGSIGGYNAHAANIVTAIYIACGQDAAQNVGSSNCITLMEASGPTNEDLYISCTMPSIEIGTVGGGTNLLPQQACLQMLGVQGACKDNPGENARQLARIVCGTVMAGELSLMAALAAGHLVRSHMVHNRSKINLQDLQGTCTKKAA
Put plainly: Inhibitory activity against HMG-CoA reductase from rat liver microsomal preparation.

With `CC[C@H](C)C(=O)O[C@H]1C[C@@H](C)C=C2C=C[C@H](C)[C@H](CC[C@@H](O)C[C@@H](O)CC(=O)O)[C@H]21`, the figures for the IC50 (in assay [1]; with HES) were 29 nM and 17 nM, respectively.

Turning to `CC[C@H](C)C(=O)O[C@H]1C[C@H](O)C[C@@H]2C=C[C@H](C)[C@H](CC[C@H](O)C[C@H](O)CC(=O)O)[C@@H]12`, the IC50 in assay [1] is 2220 nM; in assay [2], 14 nM; in the assay with HES it was 7280 nM.

With `CCC(C)(C)C(=O)O[C@H]1C[C@@H](C)C=C2C=C[C@H](C)[C@H](CC[C@@H](O)C[C@@H](O)CC(=O)O)[C@H]21`, the results for the IC50 (in assay [1]; in the assay with HES) were 12 nM and 6.5 nM, respectively.

Regarding `CC[C@H](C)C(=O)O[C@H]1C[C@@H](C)C=C2C=C[C@H](C)[C@H](CC[C@@H]3C[C@@H](O)CC(=O)O3)[C@H]21` [LOVASTATIN], 13 nM corresponded to half-maximal inhibition in the assay with HES (IC50).

With `CC[C@H](C)C(=O)O[C@H]1C[C@H](O)C[C@@H]2C=C[C@H](C)[C@H](CCC3C[C@@H](O)CC(=O)O3)[C@@H]12` (stereo not given in full), the IC50 in assay [1] turned out to be 1400 nM; with HES, 7000 nM.
